Measured values reported in patent publication US9127044B2, “Cyclic depsipeptides” (NOVARTIS AG, priority 2007, dated 2015).
Where two headings read alike, the source gives them in different places. *1 amine or outer side, *2 acyl side, *3 side chain or, on linkers, in order; H or OH if unused. Where a SMILES comes first, the peptide text is derived from it. Bridges are numbered along the chain shown (N, C = ends). [ ]: non-standard residue; d: D form. The star is where a group is joined. ξ: configuration not given here. X1 = O=C([C@@H]1CC[C@H](O)N1[*:1])[*:2]; NMeY = CN[C@@H](Cc1ccc(O)cc1)C(=O)O; Ile(3ξ) = CCC(C)[C@H](N)C(=O)O; Isovaleryl = CC(C)CC(=O)*; Isobutyryl = CC(C)C(=O)*

How the values were obtained:
human kallikrein 7 = human kallikrein 7 (Homo sapiens, UniProt P49862); experiment: Kallikrein-7 inhibitory activity in vitro (fluorescence-quenched substrate); assay type: biochemical
human kallikrein 7, sequence (P49862 30-253): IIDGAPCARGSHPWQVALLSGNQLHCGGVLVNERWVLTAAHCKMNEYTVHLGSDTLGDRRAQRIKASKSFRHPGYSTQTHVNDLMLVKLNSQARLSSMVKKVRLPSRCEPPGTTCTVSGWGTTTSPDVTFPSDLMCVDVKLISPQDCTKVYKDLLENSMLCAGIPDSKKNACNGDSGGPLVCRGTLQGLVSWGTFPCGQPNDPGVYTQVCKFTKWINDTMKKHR
Protocol: (§1) IC50 for human kallikrein can be measured using the fluorescence-quenched substrate Ac-Glu-Asp(EDANS)-Lys-Pro-Ale-Leu-Phe^Arg-Leu-Gly-Lys(DABCYL)-Glu-NH2 (where ^ indicates the scissile bond, identified by MS analysis) which can be purchased from Biosyntan (Berlin, Germany). Enzymatic reactions are conducted in 50 mM sodium citrate buffer at pH 5.6 containing 150 mM NaCl and 0.05% (w/v) CHAPS. For the determination of IC50 values the assay is performed at room temperature in 384-well plates. All final assay volumes are 30 μl. Test compounds are dissolved in 90% (v/v) DMSO/water and diluted in water (containing 0.05% (w/v) CHAPS) to 3-times the desired assay concentration. The 11 final compound concentrations are: 0.3 nM, 1 nM, 3 nM, 10 nM, 30 nM, 100 nM, 300 nM, 1 μM, 3 μM, 10 μM and 30 μM. For each assay, 10 μl water/CHAPS (±test compound) are added per well, followed by 10 μl protease solution (diluted with 1.5× assay buffer). The protease concentration in final assay solution is 0.2 nM (according to the enzyme concentrations determined by the Bradford method). After 1 hour of incubation at room temperature, the reaction is started by addition of 10 μl substrate solution (substrate dissolved in 1.5× assay buffer, final concentration is 2 μM). […] The IC50 value is calculated from the plot of percentage of inhibition vs. inhibitor concentration using non-linear regression analysis software (XLfit, Vers. 4.0; ID Business Solution Ltd., Guildford, Surrey, UK).
The fluorescence-quenched substrate Ac-Glu-Asp(EDANS)-Lys-Pro-Ale-Leu-Phe^Arg-Leu-Gly-Lys(DABCYL)-Glu-NH2 (where ^ indicates the scissile bond, identified by MS analysis) is purchased from Biosyntan (Berlin, Germany) and kept as a 5 mM stock solution in DMSO at −20° C. All other chemicals are of analytical grade.
Enzymatic reactions are conducted in 50 mM sodium citrate buffer at pH 5.6 containing 150 mM NaCl and 0.05% (w/v) CHAPS.
All protein and peptide containing solutions are handled in siliconized tubes (Life Systems Design, Merenschwand, Switzerland). The compound solutions as well as the enzyme and the substrate solutions are transferred to the 384-well plates (black Cliniplate; cat. no. 95040020 Labsystems Oy, Finland) by means of a CyBi-Well 96-channel pipettor (CyBio AG, Jena, Germany).
(§2) For fluorescence intensity (FI) measurements an Ultra Evolution reader (TECAN, Maennedorf, Switzerland) is used. The instrument is equipped with a combination of a 350 nm (20 nm bandwidth) and a 500 nm (25 nm bandwidth) bandpass filter for fluorescence excitation and emission acquisition, respectively. To increase the signal:background ratio, an appropriate dichroic mirror is employed. The optical filters and the dichroic mirror are purchased from TECAN. The fluorophores in each well are excited by three flashes per measurement.
as §1, with “For” for “IC50 for human kallikrein can be measured using the fluorescence-quenched substrate Ac-Glu-Asp(EDANS)-Lys-Pro-Ale-Leu-Phe^Arg-Leu-Gly-Lys(DABCYL)-Glu-NH2 (where ^ indicates the scissile bond, identified by MS analysis) which can be purchased from Biosyntan (Berlin, Germany). Enzymatic reactions are conducted in 50 mM sodium citrate buffer at pH 5.6 containing 150 mM NaCl and 0.05% (w/v) CHAPS. For”, “volumes were” for “volumes are”, “concentration was” for “concentration is”

[1] = molecular target: T1, Human neutrophil elastase (Homo sapiens, UniProt P08246); experiment: HNE inhibitory activity in vitro (fluorescence-quenched substrate); assay type: biochemical
T1 construct: purchased Elastin Products Company, Inc. (EPC, Owensville, USA) SE563
T1 sequence (P08246 30-267): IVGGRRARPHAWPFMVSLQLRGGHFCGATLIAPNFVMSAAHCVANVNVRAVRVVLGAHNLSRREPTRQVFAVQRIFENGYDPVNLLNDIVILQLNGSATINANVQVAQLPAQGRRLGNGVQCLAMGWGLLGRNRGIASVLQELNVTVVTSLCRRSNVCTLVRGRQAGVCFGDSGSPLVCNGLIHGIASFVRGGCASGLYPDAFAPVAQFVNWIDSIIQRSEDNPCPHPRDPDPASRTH
Protocol: Human neutrophil elastase (cat. no. SE563) is purchased from Elastin Products Company, Inc. (EPC, Owensville, USA). The dry powder (purity >95% stated by the supplier) was dissolved in 20 mM sodium acetate buffer, pH 5.0, 50% (v/v) glycerol, and frozen at −80° C. in aliquots.
The fluorescence-quenched substrate (DABCYL-Ser-Glu-Val^Asn-Leu-Asp-Ala-Glu-Phe-EDANS, where ^ indicates the scissile bond, identified by MS analysis) was purchased from Bachem AG (Bubendorf, Switzerland), and kept as a 5 mM stock solution in DMSO at −20° C. All other chemicals were of analytical grade.
Enzymatic reactions were conducted in 100 mM Tris/HCl buffer at pH 7.5, containing 500 mM NaCl, and 0.05% (w/v) CHAPS.
All protein and peptide containing solutions are handled in siliconized tubes (Life Systems Design, Merenschwand, Switzerland).
The compound solutions as well as the enzyme and the substrate solutions are transferred to the 384-well plates (black Cliniplate; cat. no. 95040020 Labsystems Oy, Finland) by means of a CyBi-Well 96-channel pipettor (CyBio AG, Jena, Germany).
as §2

[2] = Table 11, read-out: hKallikrein7 IC 50
[3] = Table 11, read-out: human neutrophile elastase IC 50

Row | IC50 (human kallikrein 7; [2]) | IC50 [1, 3] | IC50 (human kallikrein 7; read-out: IC50 for human kallikrein 7) | Compound | IC50 (human kallikrein 7; hKallikrein7 IC 50, Table 11) | IC50 [1] | IC50 (human kallikrein 7; hKallikrein7 IC50, Table 10)
1 | 100 nM | 30 nM | – | CCCOC1CCC2NC(=O)C(CC(C)C)NC(=O)C(NC(=O)C(CCC(N)=O)NC(=O)C(C)C)C(C)OC(=O)C(C(C)CC)NC(=O)C(Cc3ccc(OCC=Cc4ccccc4)cc3)N(C)C(=O)C(C(C)CC)N1C2=O (stereo not shown) [example 32] | – | – | –
2 | 4.5 nM | 35 nM | 5 nM | CCC(C)[C@@H]1NC(=O)[C@H](Cc2ccc(OCC(=O)OC(C)(C)C)cc2)N(C)C(=O)[C@H](C(C)CC)N2CCCC(NC(=O)[C@H](CC(C)C)NC(=O)[C@@H](NC(=O)[C@H](CCC(N)=O)NC(=O)C(C)C)[C@@H](C)OC1=O)C2=O (stereo partly shown) [example 33] | – | – | –
3 | 4 nM | 5 nM | – | CCCOC1CCC2NC(=O)C(CC(C)C)NC(=O)C(NC(=O)C(CCC(N)=O)NC(=O)C(C)C)C(C)OC(=O)C(C(C)CC)NC(=O)C(Cc3ccc(OCC(=O)OC(C)(C)C)cc3)N(C)C(=O)C(C(C)CC)N1C2=O (stereo not shown) [example 34] | – | – | –
4 | 8.5 nM | 3 nM | – | CCC=CCOc1ccc(CC2C(=O)NC(C(C)CC)C(=O)OC(C)C(NC(=O)C(CCC(N)=O)NC(=O)C(C)C)C(=O)NC(CC(C)C)C(=O)NC3CCC(OCCC)N(C3=O)C(C(C)CC)C(=O)N2C)cc1 (stereo not shown) [example 35] | – | – | –
5 | 8.5 nM | 3.5 nM | – | CCCOC1CCC2NC(=O)C(CC(C)C)NC(=O)C(NC(=O)C(CCC(N)=O)NC(=O)C(C)C)C(C)OC(=O)C(C(C)CC)NC(=O)C(Cc3ccc(OCC=CC(F)(F)F)cc3)N(C)C(=O)C(C(C)CC)N1C2=O (stereo not shown) [example 36] | – | – | –
6 | 4.5 nM | 2.5 nM | – | CCCOC1CCC2NC(=O)C(CC(C)C)NC(=O)C(NC(=O)C(CCC(N)=O)NC(=O)C(C)C)C(C)OC(=O)C(C(C)CC)NC(=O)C(Cc3ccc(OC)cc3)N(C)C(=O)C(C(C)CC)N1C2=O (stereo not shown) [example 37] | – | – | –
7 | 4 nM | 1.5 nM | – | CCCOC1CCC2NC(=O)C(CC(C)C)NC(=O)C(NC(=O)C(CCC(N)=O)NC(=O)C(C)C)C(C)OC(=O)C(C(C)CC)NC(=O)C(Cc3ccc(OCC=C(C)C)cc3)N(C)C(=O)C(C(C)CC)N1C2=O (stereo not shown) [example 38] | – | – | –
8 | 8.5 nM | 3.5 nM | – | CCCOC1CCC2NC(=O)C(CC(C)C)NC(=O)C(NC(=O)C(CCC(N)=O)NC(=O)C(C)C)C(C)OC(=O)C(C(C)CC)NC(=O)C(Cc3ccc(OCc4ccccc4)cc3)N(C)C(=O)C(C(C)CC)N1C2=O (stereo not shown) [example 39] | – | – | –
9 | 6.5 nM | 2.5 nM | – | C=CCOc1ccc(CC2C(=O)NC(C(C)CC)C(=O)OC(C)C(NC(=O)C(CCC(N)=O)NC(=O)C(C)C)C(=O)NC(CC(C)C)C(=O)NC3CCC(OCCC)N(C3=O)C(C(C)CC)C(=O)N2C)cc1 (stereo not shown) [example 40] | – | – | –
10 | 2 nM | 1 nM | – | C#CCOc1ccc(CC2C(=O)NC(C(C)CC)C(=O)OC(C)C(NC(=O)C(CCC(N)=O)NC(=O)C(C)C)C(=O)NC(CC(C)C)C(=O)NC3CCC(OCCC)N(C3=O)C(C(C)CC)C(=O)N2C)cc1 (stereo not shown) [example 41] | – | – | –
11 | 1 nM | 1 nM | – | CCCOC1CCC2NC(=O)C(CC(C)C)NC(=O)C(NC(=O)C(CCC(N)=O)NC(=O)C(C)C)C(C)OC(=O)C(C(C)CC)NC(=O)C(Cc3ccc(OCc4cc(C)n(C)n4)cc3)N(C)C(=O)C(C(C)CC)N1C2=O (stereo not shown) [example 42] | – | – | –
12 | 3.5 nM | 9 nM | – | CCC(C)[C@@H]1NC(=O)[C@H](Cc2ccc(OCC(=O)NCCOCCOCC(=O)OC(C)(C)C)cc2)N(C)C(=O)[C@H](C(C)CC)N2CCCC(NC(=O)[C@H](CC(C)C)NC(=O)[C@@H](NC(=O)[C@H](CCC(N)=O)NC(=O)C(C)C)[C@@H](C)OC1=O)C2=O (stereo partly shown) [example 44] | – | – | –
13 | 2 nM | 3 nM | – | CCCOC1CCC2NC(=O)C(CC(C)C)NC(=O)C(NC(=O)C(CCC(N)=O)NC(=O)C(C)C)C(C)OC(=O)C(C(C)CC)NC(=O)C(Cc3ccc(OCc4cn(CCOCCOCCN=[N+]=[N-])nn4)cc3)N(C)C(=O)C(C(C)CC)N1C2=O (stereo not shown) [example 45] | – | – | –
14 | – | – | – | CCC(C)[C@@H]1NC(=O)[C@H](Cc2ccc(O)cc2)N(C)C(=O)[C@H](C(C)CC)NC(=O)[C@@H]2CC[C@H](O)N2C(=O)[C@H](CC(C)C)NC(=O)[C@@H](NC(=O)[C@H](CCC(N)=O)NC(=O)C(C)C)[C@@H](C)OC1=O (stereo partly shown) [example 46] (Isobutyryl-QTL[X1][Ile(3ξ)][NMeY][Ile(3ξ)]; ester 2-C) | 10 nM | 100 nM | –
15 | – | – | – | CCC(C)[C@@H]1NC(=O)[C@H](Cc2ccc(O)cc2)N(C)C(=O)[C@H](C(C)CC)N2C(=O)C(CC[C@@H]2O)NC(=O)[C@H](CC(C)C)NC(=O)[C@@H](NC(=O)[C@H](CCC(=O)O)NC(=O)C(C)C)[C@@H](C)OC1=O (stereo partly shown) [example 47] | 100 nM | 10 nM | –
16 | – | – | – | CCC(C)C(=O)N[C@@H](CCC(N)=O)C(=O)N[C@@H]1C(=O)N[C@@H](CC(C)C)C(=O)NC2CC[C@H](O)N(C2=O)[C@@H](C(C)CC)C(=O)N(C)[C@@H](Cc2ccc(O)cc2)C(=O)N[C@@H](C(C)CC)C(=O)O[C@@H]1C (stereo partly shown) [formula III] | 0.4 nM | 10 nM | 0.4 nM
17 | – | – | – | CCC(C)C(=O)N[C@@H](CCC(N)=O)C(=O)N[C@@H]1C(=O)N[C@@H](CC(C)C)C(=O)N[C@H]2CC=CN(C2=O)[C@H](C(C)CC)C(=O)N(C)[C@@H](Cc2ccc(O)cc2)C(=O)N[C@@H](C(C)CC)C(=O)O[C@@H]1C (stereo partly shown) [formula IV] | 5 nM | 70 nM | –
18 | 1 nM | 10 nM | – | CC(C)CC(=O)N[C@@H](CCC(N)=O)C(=O)N[C@@H]1C(=O)N[C@@H](CC(C)C)C(=O)N2CCC[C@@H]2C(=O)N[C@@H](Cc2ccccc2)C(=O)N(C)[C@@H](Cc2ccc(O)cc2)C(=O)N[C@@H](C(C)C)C(=O)O[C@@H]1C [formula IX] (Isovaleryl-QTL[dP]F[NMeY]V; ester 2-C) | – | – | –
19 | – | – | – | CCC(C)[C@@H]1NC(=O)[C@H](Cc2ccc(O)cc2)N(C)C(=O)[C@@H](C(C)CC)N2C=CC[C@H](NC(=O)[C@H](CC(C)C)NC(=O)[C@@H](NC(=O)[C@H](CCC(N)=O)NC(=O)C(C)C)[C@@H](C)OC1=O)C2=O (stereo partly shown) [formula V] | 6 nM | 60 nM | –
